Experiments:
hα7-wt nAChR [1] = target: T1, hα7-wt nAChR (Homo sapiens, UniProt P36544); experiment: Patch-clamp current recording (whole-cell voltage clamp), potentiation of choline current and PAM type; assay type: cell-based; set-up: key: Type 0 compounds minimally enhance the effect size of the current elicited by 1 mM choline.; Type 1 compounds enhance the effect size of the current elicited by 1 mM choline but minimally alter the kinetics of the receptor.; Type 2 compounds enhance the effect size of the current elicited by 1 mM choline while reducing the rate and/or the extent of desensitization.; Type 3 compounds enhance the effect size of the current elicited by 1 mM choline. When tested at higher concentrations up to 10 μM they completely inhibit desensitization, in particular a 1 mM choline application of 250 milliseconds.; Type 4 compounds allow for an initial desensitization of the receptor followed by a re-opening of the receptor during agonist application; conditions: hα7-wt nAChR-expressing GH4C1 cells, 1 mM choline
T1 sequence (P36544 23-502): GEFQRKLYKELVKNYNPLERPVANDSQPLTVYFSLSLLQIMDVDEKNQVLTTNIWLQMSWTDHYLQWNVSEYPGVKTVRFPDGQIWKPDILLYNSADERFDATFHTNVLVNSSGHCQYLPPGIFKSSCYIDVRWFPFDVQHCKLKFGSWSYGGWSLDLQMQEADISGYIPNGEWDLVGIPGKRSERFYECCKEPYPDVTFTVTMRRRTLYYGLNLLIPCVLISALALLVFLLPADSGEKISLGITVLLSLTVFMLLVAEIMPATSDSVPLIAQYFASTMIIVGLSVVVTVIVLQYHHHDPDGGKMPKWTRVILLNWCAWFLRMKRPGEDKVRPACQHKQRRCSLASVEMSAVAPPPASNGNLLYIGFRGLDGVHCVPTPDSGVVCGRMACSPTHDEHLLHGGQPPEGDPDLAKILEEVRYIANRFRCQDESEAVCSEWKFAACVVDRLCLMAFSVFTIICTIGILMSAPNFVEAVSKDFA
Experimental: The compounds of the present invention are classified as type 0-4, based on qualitative kinetic properties, as determined by whole-cell voltage-clamp recordings. This classification is based on the effect of an α7 PAM compound, as described hereinbefore, on the signal elicited by an agonist application. In particular, said agonist is choline at a concentration of 1 mM. In a preferred experimental setting, said α7 PAM compound and choline are simultaneously applied to the cell, as described hereinafter. Desensitization is defined as the closure of the receptor upon activation during the application of the agonist in whole-cell voltage-clamp electrophysiology measurements seen as the reduction of the […] current after initial activation by the agonist.
The definition of the PAM types 0-4 is described hereinafter: • Type 0 compounds minimally enhance the effect size of the current elicited by 1 mM choline. • Type 1 compounds enhance the effect size of the current elicited by 1 mM choline but minimally alter the kinetics of the receptor. In particular, the rate and the extent of desensitization, elicited by the agonist, is not affected. The compound-modulated response to 1 mM choline, therefore, is a close to linear scaling of the 1 mM choline response in absence of the α7 PAM compound. • Type 2 compounds enhance the effect size of the current elicited by 1 mM choline while reducing the rate and/or the extent of desensitization. • Type 3 compounds enhance the effect size of the current elicited by 1 mM choline. […] At low-potency concentrations of the α7 PAM compound, the agonist-induced activation, which is followed by desensitization, can still be separated from the compound-induced re-opening as an initial inward current-maximum. At higher potency concentrations of the α7 PAM compound, the re-opening occurs faster than the closure due to desensitization so that the initial current-maximum disappears.
A compound was considered to have interesting PAM-like activity when the potentiation of the peak current was at least 200% compared to the control choline response (=100%). Such compounds are classified as belonging to a particular PAM type in the Experimental Part. Compounds not meeting the condition are not classified as belonging to a particular PAM-type.
The compounds also have a potentiating effect on the response to choline when measured by whole-cell patch clamp electrophysiology in GH4C1 cells stably over-expressing the human wild-type α7 receptor.
Patch-clamp recording from mammalian cells has provided a powerful means of assessing the function of membrane-bound proteins thought to be subunits of ligand-gated ion channels. Activation of such proteins by endogenous or exogenous ligands cause opening of a pore associated with the receptor through which ions flow down their electrochemical gradient. In the case of the hα7-wt nAChR-expressing GH4C1 recombinant cell line the preferential permeability to calcium of this receptor means that calcium flows into the cell upon activation by ACh, choline and other nicotinic ligands giving rise to a calcium current. Since this receptor rapidly desensitizes in the presence of agonist it is important an application system is used which is capable of very rapid switching of solutions (<100 ms) to prevent partial or full desensitisation of receptor responses coincident with the time of agonist application. Consequently, a second convenient technique to assess the enhancement of nicotinic efficacy is patch-clamp recording from hα7-wt nAChR-expressing GH4C1 cells coupled with a rapid-application system.
• a) Assay Buffers • The external recording solution consisted of 152 mM NaCl, 5 mM KCl, 1 mM MgCl2, 1 mM Calcium, 10 mM HEPES; pH 7.3. […]

hα7-wt nAChR [2] = target: T1, hα7-wt nAChR; experiment: Ca2+ flux imaging (FDSS): potentiation of the choline response; assay type: cell-based; conditions: Ca2+ assay as described in D.1, potentiation of choline response, hα7-wt nAChR; for EC50: read-out: Potency (pEC50) (converted)
Method in brief: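 Cells expressing human α7-wt nAChR loaded with fluo-4AM (2 μM final) up to 120 min; HBSS/10 mM HEPES/5 mM CaCl2/0.1% BSA buffer. Compound (0.01–30 μM) applied up to 10 min before 100 μM choline; peak fluorescence measured on FDSS relative to choline alone (100%). EC50 from sigmoidal curves.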

Row | melting point [°C] | EC50 (hα7-wt nAChR [2]) [nM] | Emax (hα7-wt nAChR [2]; read-out: % Efficacy) [%] | SMILES | PAM type (hα7-wt nAChR [1])
1 | 222.9 | 407 | – | Cc1cc(-n2nc(Nc3cccc(Cl)c3F)cc2CC(=O)NC2CC2)cc(C)n1 [Compound 78, 3-[(3-chloro-2-fluorophenyl)amino]-N-cyclopropyl-1-(2,6-dimethyl-4-pyridinyl)-1H-pyrazole-5-acetamide] | 2
2 | 220.5 | 302 | – | Cc1cc(-n2nc(Nc3cccc(Cl)c3F)cc2CC(=O)NCC2CC2)ccn1 [Compound 79, 3-[(3-chloro-2-fluorophenyl)amino]-N-(cyclopropylmethyl)-1-(2-methyl-4-pyridinyl)-1H-pyrazole-5-acetamide] | 4
3 | 210.4 | 95.5 | – | Cc1cc(-n2nc(Nc3cccc(Cl)c3F)cc2CC(=O)NCC2CC2)cc(C)n1 [Compound 80, 3-[(3-chloro-2-fluorophenyl)amino]-N-(cyclopropylmethyl)-1-(2,6-dimethyl-4-pyridinyl)-1H-pyrazole-5-acetamide] | 2
4 | 223.2 | 490 | – | Cc1cc(-n2nc(Nc3cccc(Cl)c3F)cc2CC(=O)NC2CCC2)ccn1 [Compound 82, 3-[(3-chloro-2-fluorophenyl)amino]-N-cyclobutyl-1-(2-methyl-4-pyridinyl)-1H-pyrazole-5-acetamide] | 2
5 | 236.4 | 145 | – | COc1cc(Cl)cc(Nc2cc(CC(=O)NC3CCC3)n(-c3ccnc(C)c3)n2)c1 [Compound 83, 3-[(3-chloro-5-methoxyphenyl)amino]-N-cyclobutyl-1-(2-methyl-4-pyridinyl)-1H-pyrazole-5-acetamide] | 4
6 | 163.3 | 2340 | – | Cc1cc(-n2nc(Nc3ccc4c(c3)OC(F)(F)O4)cc2CCCO)ccn1 [Compound 92, 3-[(2,2-difluoro-1,3-benzodioxol-5-yl)amino]-1-(2-methyl-4-pyridinyl)-1H-pyrazole-5-propanol] | 2
7 | 132 | 490 | – | Cc1cc(-n2nc(Nc3ccc4c(c3)OC(F)(F)O4)cc2CCC(=O)N(C)C)ccn1 [Compound 99, 3-[(2,2-difluoro-1,3-benzodioxol-5-yl)amino]-N,N-dimethyl-1-(2-methyl-4-pyridinyl)-1H-pyrazole-5-propanamide] | 4
8 | 248.9 | 1260 | – | Cc1cc(-n2nc(Nc3ccc4c(c3)OC(F)(F)O4)cc2CC(=O)NC2CC2)ccn1 [Compound 100, N-cyclopropyl-3-[(2,2-difluoro-1,3-benzodioxol-5-yl)amino]-1-(2-methyl-4-pyridinyl)-1H-pyrazole-5-acetamide] | 2
9 | 237.7 | 240 | – | Cc1cc(-n2nc(Nc3ccc4c(c3)OC(F)(F)O4)cc2CC(=O)NC2CCC2)ccn1 [Compound 102, N-cyclobutyl-3-[(2,2-difluoro-1,3-benzodioxol-5-yl)amino]-1-(2-methyl-4-pyridinyl)-1H-pyrazole-5-acetamide] | 2
10 | 147.3 | 1820 | – | CC[C@H](O)Cc1cc(Nc2cccc(OC(F)(F)F)c2)nn1-c1ccnc(C)c1 [Compound 106, (alphaS)-alpha-ethyl-1-(2-methyl-4-pyridinyl)-3-[[3-(trifluoromethoxy)phenyl]amino]-1H-pyrazole-5-ethanol] | 2
11 | 231.5 | 2290 | 822 | CNC(=O)Cc1cc(Nc2cccc(OC(F)(F)F)c2)nn1-c1ccnc(C)c1 [Compound 111, N-methyl-1-(2-methyl-4-pyridinyl)-3-[[3-(trifluoromethoxy)phenyl]amino]-1H-pyrazole-5-acetamide] | 2

More lines, now with the values behind:

Row | SMILES | melting point [°C] | EC50 (hα7-wt nAChR [2]) [nM] | Emax (hα7-wt nAChR [2]; read-out: % Efficacy) [%] | PAM type (hα7-wt nAChR [1])
12 | CCNC(=O)Cc1cc(Nc2cccc(Cl)c2F)nn1-c1ccnc(C)c1 [Compound 73, 3-[(3-chloro-2-fluorophenyl)amino]-N-ethyl-1-(2-methyl-4-pyridinyl)-1H-pyrazole-5-acetamide] | 205.1 | 1260 | – | 3
13 | CCNC(=O)Cc1cc(Nc2cc(Cl)cc(OC)c2)nn1-c1ccnc(C)c1 [Compound 74, 3-[(3-chloro-5-methoxyphenyl)amino]-N-ethyl-1-(2-methyl-4-pyridinyl)-1H-pyrazole-5-acetamide] | 224 | 776 | – | 4
14 | Cc1cc(-n2nc(Nc3cccc(Cl)c3F)cc2CC(=O)NC2CC2)ccn1 [Compound 76, 3-[(3-chloro-2-fluorophenyl)amino]-N-cyclopropyl-1-(2-methyl-4-pyridinyl)-1H-pyrazole-5-acetamide] | 192.6 | 1100 | – | 3
15 | COc1cc(Cl)cc(Nc2cc(CC(=O)NCC3CC3)n(-c3ccnc(C)c3)n2)c1 [Compound 81, 3-[(3-chloro-5-methoxyphenyl)amino]-N-(cyclopropylmethyl)-1-(2-methyl-4-pyridinyl)-1H-pyrazole-5-acetamide] | 248.7 | 148 | – | 0
16 | CC[C@H](O)Cc1cc(Nc2ccc3c(c2)OC(F)(F)O3)nn1-c1ccnc(C)c1 [Compound 93, (alphaS)-3-[(2,2-difluoro-1,3-benzodioxol-5-yl)amino]-alpha-ethyl-1-(2-methyl-4-pyridinyl)-1H-pyrazole-5-ethanol] | 138.3 | 1700 | – | 2
17 | CCNC(=O)Cc1cc(Nc2ccc3c(c2)OC(F)(F)O3)nn1-c1ccnc(C)c1 [Compound 98, 3-[(2,2-difluoro-1,3-benzodioxol-5-yl)amino]-N-ethyl-1-(2-methyl-4-pyridinyl)-1H-pyrazole-5-acetamide] | 239.2 | 1200 | – | 2
18 | Cc1cc(-n2nc(Nc3ccc4c(c3)OC(F)(F)O4)cc2CC(=O)NCC2CC2)ccn1 [Compound 101, N-(cyclopropylmethyl)-3-[(2,2-difluoro-1,3-benzodioxol-5-yl)amino]-1-(2-methyl-4-pyridinyl)-1H-pyrazole-5-acetamide] | 232.3 | 603 | – | 2
19 | CNC(=O)Cc1cc(Nc2cccc(OC(F)(F)F)c2)nn1-c1cc(C)nc(C)c1 [Compound 112, 1-(2,6-dimethyl-4-pyridinyl)-N-methyl-3-[[3-(trifluoromethoxy)phenyl]amino]-1H-pyrazole-5-acetamide] | 222 | 1290 | – | 2
20 | CCNC(=O)Cc1cc(Nc2cccc(OC(F)(F)F)c2)nn1-c1ccnc(C)c1 [Compound 113, N-ethyl-1-(2-methyl-4-pyridinyl)-3-[[3-(trifluoromethoxy)phenyl]amino]-1H-pyrazole-5-acetamide] | 210.3 | 1150 | – | 3
